Four compounds from PMC9106035, “Synthesis, X-ray Structure and Biological Studies of New Self-Assembled Cu(II) Complexes Derived from s-Triazine Schiff Base Ligand” (Molecules, 2022) can be followed below.

In brackets after ≈: the same amount, converted by molar mass. Several values for one entry are separate records, joined by “and”; a condition that tells them apart may be missing. Equal values may be shown once. Read-outs that look alike come from different tables or passages of the source. Marks after values point to notes of the source that are not given here.

Assay [1] is described as follows: DPPH radical scavenging assay. The assay is classed as biochemical. The procedure: The studied Cu(II) complexes and the free ligands were assessed for their antioxidant activity levels using an α,α-diphenyl-β-picrylhydrazyl (DPPH) scavenging assay, and the results are given in Table 7. […] The results indicated better antioxidant activity for DMAT than for DMOHT, indicating the effect of the substituent at the phenyl moiety on the antioxidant activity level of the free ligand. […] On the other hand, the Cu(II) complexes have improved levels of antioxidant activity compared to the free ligands.
Method S3 DPPH Radical Scavenging Activity:
Freshly prepared (0.004 %w/v) methanol solution of 2,2-diphenyl-1-pi crylhydrazyl (DPPH) radical was prepared and stored at 10 °C in dark place. A methanolic solution of the test compound was prepared using the same procedure. A 40 uL aliquot of the methanol solution was added to 3mL of DPPH solution. Absorbance measurements were recorded immediately with a UV-visible spectrophotometer (Milton Roy, Spectronic 1201). The decrease in absorbance at 515 nm was determined continuously, with data being recorded at 1 min intervals until the absorbance stabilized (16 min). The absorbance of the DPPH radical without antioxidant (control) and the reference compound ascorbic acid were also measured.
All the determinations were performed in three replicates and averaged. The percentage inhibition (PI) of the DPPH radical was calculated according to the […]
PI = [{(AC- AT)/ AC} x 100] (1)
Where AC = Absorbance of the control at t = 0 min and AT = absorbance of the sample+DPPH at t = 16 min. The 50% inhibitory concentration (IC50), the concentration required t o inhibit DPPH radical by 50%, was estimated from graphic plots of the dose respons e curve.

The test system of assay [2] is A. fumigatus (RCMB 002008). Put plainly: Agar well diffusion, inhibition zone. In kind it is cell-based. The following applies: 10 mg/mL of the tested compounds. The procedure: (§1) The antimicrobial activity of the free ligands and the corresponding Cu(II) complexes was determined against different categories of microbes (Table 5). All inhibition zones were determined at 10 mg/mL of the tested compounds. […] The largest inhibition zones were found for B. subtilis (25 mm), which is very close to the standard Gentamycin (26 mm). […] Complex 1 evidenced antimicrobial activity against all microbes except C. albicans.
(§2) Method S2: Antimi crobial studies a) Tested pathogenic microbes
(§3) The antibacterial a ctivity of the studied ligands and their Cu(II) complexes were evaluated against two Gram positive bacteria ((S. aureus (ATCC 25923) and B. subtilis (RCMB015(1)NRR LB-543)), two Gram negatvie bacteria ((E. coli (ATCC 25922) and P. vulgaris (RCMB 004(1)ATCC 13315)) and two fungi ((A. fumigatus […]
was used as standard antibacterial agent. The samples maintained in Brain heart infusion (BHI) at 20 °C; […] of each stock–c ulture was added to 3 mL of BHI […]
broth. […]
(§4) 0.5). In case of fungi A. fumigatus (RCMB 002008) and C. albicans (RCMB 005003(1) ATCC 10231), the used medium in antagonistic activity against tested fungi is Potato Dextrose Agar, where Fluconazole was used standard antifungal agent. b) Agar well diffusion method
(§5) Synthetic compounds were prepared at concentration 10 mg/mL dissolved in DMSO as stock solutions. Preparation of sterilized Mueller Hinton agar plates seeded with tested pathogenic b acteria occurred. The wells are done by sterilized cork borer in size […]
(§6) comparably with DMSO as control. The plates were incubated at 37°C for 24 h. after incubation period; antimicrobial activity was d etermined by inhibition zones. […]
On the technique in general: A growth-free zone around the sample is the usual read-out of agar diffusion tests.

The test system of assay [3] is C. albicans (RCMB 005003(1) ATCC 10231). Put plainly: Agar well diffusion, inhibition zone. The assay is classed as cell-based. The following applies: 10 mg/mL of the tested compounds. How it is done: as §1, §2
(§7) The antibacterial a ctivity of the studied ligands and their Cu(II) complexes were evaluated against two Gram positive bacteria ((S. aureus (ATCC 25923) and B. […]
as §4, §5, §6

Assay [4] concerns A. fumigatus (RCMB 002008). Put plainly: Minimum Inhibitory Concentration (MIC). In kind it is cell-based. How it is done:
as §2, §7
(§8) 0.5). In case of fungi A. fumigatus (RCMB 002008) and C. albicans (RCMB 005003(1) ATCC 10231), the used medium in antagonistic activity against tested fungi is Potato Dextrose Agar, where Fluconazole was used standard antifungal agent. […]
(§9) c) Minimum Inhibitory Concentration (MIC)
(§10) Different dilutions of the compounds are inoculat ed with tested pathogenic microbes.
(§11) After incubation period of 96 well microplate, the results are meas ured using microplate reader. To determine at what level the MIC endpoint is established; subculture of test samples at different concentrati ons occurred in nutrient agar plates.

Assay [5] relates to C. albicans (RCMB 005003(1) ATCC 10231). As to the kind of experiment: Minimum Inhibitory Concentration (MIC). The assay is classed as cell-based. The following applies: Candida albicans, read-out: MIC. How it is done: as §2, §7, §8, §9, §10, §11
Assay [6] relates to lung carcinoma A-549 cell line. Put plainly: Anticancer activity, MTT viability assay. The assay is classed as cell-based. As to conditions: A-549 cells, 24 h, MTT. The procedure:
The studied compounds were examined for their anticancer activity against the lung carcinoma A-549 cell line.
Method S4 Evaluation of Cytotoxic activity
The cells were propagated in Dulbecco’s modified Eagle’s medium (DMEM) supplemented with 10% heat-inactivated fetal bovine serum, 1 % L-glutamine, HEPES buffer and 50µg/mL Gentamycin. All cells were maintained at 37 °C in a humidified atmosphere with 5% CO2 and were subcultured tw o times a week.
Cytotoxicity evaluation using viability assay
For cytotoxicity assay, the cells were seeded in 96-well plate at a cell concentration of 1×10^4 cells per well in 100µl of growth medium. Fresh medium containing different concentrations of the test sample was added after 24 h of seeding. Serial two-fold dilutions of the tested chemical compound were added to confluent cell monolayers dispensed into 96-well, flat-bottomed microtiter plates (Falcon, NJ, USA) using a multichannel pipette. The microtiter plates were incubated at 37 °C in a humidified incubator with 5% CO2 for a period of 24 h. Three wells were used for each concentration of the test sample. Control cells were incubated without test sample and with or without DMSO. The little percentage of DMSO present in the […]
cells for at 37°C, for 24 h, the viabl e cells yield was determined by the MTT test.
Briefly, the media was removed from the 96 well plate and replaced with 100 µL of fresh culture DMEM m edium without phenol red then 10 µL of the 12 mM MTT stock solution (5 mg of MTT in 1 mL of PBS) to each well including the untreated controls. The 96 well plates were then incubated at 37°C and 5% CO2 for 4 hours. An 85 µL aliquot of the media was removed from t he wells, and 50 µL of DMSO was added to each well and mixed thoroughly with the pipette and incubated at 37°C for 10 min. Then, the optical density was measured at 590 nm with the microplate reader (SunRise, TECAN, Inc, USA) to determine the number of viable cells and the percentage of viability was calculat ed as [(ODt/ODc)]x100% where ODt i s the mean optical density of wells treated with the tested s ample and ODc is the mean optical density of untreated cells. The relation between surviving cells and drug concentration is plotted to get the survival curve of each tumor cell line after treatment with the specified compound. The 50% inhibitory concentration (IC50), the concentration required to cause t oxic effects in 50% of intact cells, was estimated from graphic plots of the dose response curve for each conc. using Graphpad Prism software (San Diego, […]

In assay [7] the test system is B. subtilis (RCMB015(1)NRR LB-543). As to the kind of experiment: Agar well diffusion, inhibition zone. The assay is classed as cell-based. The following applies: 10 mg/mL of the tested compounds. How it is done:
as §1, §2, §3
(§12) was used as standard antibacterial agent. The samples maintained in Brain heart infusion (BHI) at 20 °C; […] of each stock–c ulture was added to 3 mL of BHI broth. Overnight cultures were kept for 24 h at 37 °C ± 1 °C and the purity of cultures was checked aft er 24 h of incubation. […]
(§13) b) Agar well diffusion method
as §5, §6

The subject of assay [8] is E. coli (ATCC 25922). As to the kind of experiment: Agar well diffusion, inhibition zone. In kind it is cell-based. As to conditions: 10 mg/mL of the tested compounds. The procedure:
as §1, §2, §3, §12, §13, §5, §6

The subject of assay [9] is P. vulgaris (RCMB 004(1)ATCC 13315). As to the kind of experiment: Agar well diffusion, inhibition zone. The following applies: 10 mg/mL of the tested compounds. In kind it is cell-based. The procedure: as §1, §2, §3, §12, §13, §5, §6
For assay [10], the system named is S. aureus (ATCC 25923). Put plainly: Agar well diffusion, inhibition zone. The following applies: 10 mg/mL of the tested compounds. The assay is classed as cell-based. How it is done: as §1, §2, §3, §12, §13, §5, §6
The subject of assay [11] is B. subtilis (RCMB015(1)NRR LB-543). As to the kind of experiment: Minimum Inhibitory Concentration (MIC). In kind it is cell-based. How it is done: as §2, §3, §12, §9, §10, §11
For assay [12], the system named is E. coli (ATCC 25922). Put plainly: Minimum Inhibitory Concentration (MIC). The assay is classed as cell-based. The procedure:
as §2, §3, §12, §9, §10, §11

In assay [13] the test system is P. vulgaris (RCMB 004(1)ATCC 13315). As to the kind of experiment: Minimum Inhibitory Concentration (MIC). In kind it is cell-based. The procedure:
as §2, §3, §12, §9, §10, §11

The test system of assay [14] is S. aureus (ATCC 25923). Put plainly: Minimum Inhibitory Concentration (MIC). In kind it is cell-based. How it is done: as §2, §3, §12, §9, §10, §11

The MIC is the lowest concentration that inhibits growth of the organism. By IC50 is commonly meant the concentration at which inhibition is half-maximal.

Turning to `O=C1O[C@H]([C@@H](O)CO)C(O)=C1O` [Ascorbic Acid, ascorbic acid, reference compound], the “DPPH Scavenging %” value in assay [1] (Conc. 2.5 μg/mL) came out at 34.57%; in [1] (Conc. 5 μg/mL), 40.36%; in assay [1] (Conc. 10 μg/mL) it was 48.52%; in assay [1] (Conc. 20 μg/mL), 71.38%; in [1] (Conc. 40 μg/mL), 83.09%; in assay [1] (Conc. 80 μg/mL), 90.25%. Further, the “DPPH Scavenging %” value amounted to 92.31% in assay [1] (Conc. 160 μg/mL), 95.64% in assay [1] (Conc. 320 μg/mL), 97.83% in assay [1] (Conc. 640 μg/mL) and 98.91% in assay [1] (Conc. 1280 μg/mL). Moreover, the “IC50 (DPPH scavenging)” value in assay [1] (antioxidant activity) is 10.62 ± 0.84 µg/mL (≈ 60.3 µM).
As to `CC(=O)N1CCN(c2ccc(OCC3COC(Cn4ccnc4)(c4ccc(Cl)cc4Cl)O3)cc2)CC1` (stereo not shown) [Ketoconazole, reference compound], the Inhibition zone diameters in [2] is 17 mm and 17 ^a mm; in [3], 20 ^a mm. In addition, the minimal inhibitory concentration (MIC) in [4] is 156.25 ^a μg/mL; in assay [4] (Aspergillus fumigatus, RCMB002008, read-out: MIC) it was 156 µg/mL (≈ 294 µM); in assay [5], 312 µg/mL (≈ 588 µM).
`N.N.[Cl][Pt][Cl]` [cis-Platin, cis-platin, reference compound]: in assay [6], the IC50 came out at 25 µM.
For the compound Gentamycin [reference compound], the Inhibition zone diameters in assay [7] was 26 mm and 26 ^b mm; in the assay on E. coli (ATCC 25922) [8], 30 ^b mm; in [9] it was 25 ^b mm; with S. aureus (ATCC 25923) [10], 24 ^b mm. For the same compound, the MIC in assay [11] was 4.8 μg/mL and 4.8 ^b μg/mL; in the assay on E. coli (ATCC 25922) [12], 4.8 ^b μg/mL; in [13], 4.8 ^b μg/mL; in the assay with S. aureus (ATCC 25923) [14], 9.7 ^b μg/mL.
